Experiments:
[1] = tested on: E. coli (strain RS 218); assay: Preliminary clotting assay (E. coli-mediated clotting of C. albicans cells); assay type: cell-based; details: minimal concentration that prevents clotting of C. albicans cells by E. coli RS 218; triplicate
Procedure: Overnight cultures of C. albicans (strain ATCC 60193) and E. coli (strain RS 218) are prepared by suspending colony material from agar plates in 10 ml trypticase soy broth (TSB) each and incubated for 16-18 h at 37° C., the culture of E. coli without shaking, but the culture of C. albicans with agitation on a horizontal shaker at 200 rpm. The cells of 2 ml of each culture are washed twice with 1 ml phosphate buffered saline (PBS) by centrifugation (10 min at 2500×g), discarding the supernatant and re-suspension of the cell pellet in fresh PBS. After the last washing step, the optical density at 600 nm is measured and adjusted to 5.0 for C. albicans (corresponding to approx. 5×10^7 viable cells/ml) and to 3.0 for E. coli (corresponding to approx. 5×10^9 viable cells/ml). […] Each test well is supplied with 33 μl PBS or the test solution of the desired concentration, and 33 μl of E. coli suspension is added and mixed by slightly tapping the plate. After 5 min 33 μl of C. albicans suspension is added to give a total volume of 100 μl per well. As a negative clumping control, one well is left without addition of E. coli. The plate is incubated for 20 min at 37° C. on a horizontal shaker at 150 rpm and the cells are allowed to settle for 10 min at r.t. before the wells are inspected with the help of a magnifier for visual clumps. For each substance the minimal concentration that prevents clotting of C. albicans cells is noted. Each experiment is performed in triplicate.

[2] = tested on: GFP tagged E. coli strain UTI89; assay: Flow cytometry inhibition assay (adherence of GFP tagged UTI89 to bladder cell line 5637); assay type: cell-based; details: for IC50: Escherichia coli; for rIC50: ratio of IC50 to IC50 of reference HM, cell line 5637
Procedure: The GFP tagged E. coli strain UTI89 is statically incubated in Luria-Bertani broth for 24 h, washed twice and adjusted to an optical density at 600 nm (OD600) between 2.0 and 3.0. The human epithelial bladder carcinoma cell line 5637 was grown in RPMI 1640 medium, supplemented with 10% fetal calf serum (FCS), 100 U/ml penicillin and 100 μg/ml streptomycin at 37° C., 5% CO2 in 24-well plates. Cells were infected with 200 μl bacterial suspension (multiplicity of infection of 1:50 (cell:bacteria)), premixed with 25 μl of antagonists at different concentrations. To homogenize the infection, plates were centrifuged at room temperature for 3 min at 600 g. After an incubation of 1.5 h at 37° C., infected cells were washed four times with RPMI 1640 medium and suspended in ice-cold PBS for 5-20 min. Samples were measured with a CyAn ADP flow cytometer (Becton Dickinson, San Jose, Calif.) and analyzed by gating on the eukaryotic cells based on forward (FSC) and side scatter (SSC). A total of 10^4 cells were measured per sample. Data were acquired in a linear mode for the SSC and logarithmic mode for FSC and the green fluorescent channel FL1-H (e.g. GFP). The mean fluorescence intensity (MFI) of FL1-H was counted as a surrogate marker for the adherence of bacteria. Quantification of adhesion was evaluated with the FlowJo software 9.0.1 (Tree Star, Inc., Ashland, Oreg., USA). IC50 values were determined by plotting the concentration of the antagonist in a logarithmic mode versus the MFI and by fitting the curve with the prism software (GraphPad, inhibition curve, variable slope). The relative IC50 (rIC50) is the ratio of the IC50 of the test compound to the IC50 of the reference compound HM (n-heptyl α-D-mannopyranoside.

[3] = In vivo pharmacokinetics, single dose, urine and plasma sampling; parameters: species or system mouse; details: single i.v. application of 50 mg/kg, applied antagonist detected
Procedure: The aim is the identification of FimH antagonists suitable for intravenous (i.v.) or preferably peroral (p.o.) applications. Before infection studies in a mouse disease model could be performed, the in vivo pharmacokinetic parameters (Cmax, AUC) had to be determined, to ensure the antagonists availability in the target organ (bladder). Single-dose pharmacokinetic studies were performed by i.v. and p.o. application of the FimH antagonists at a concentration of 50 mg/kg followed by urine and plasma sampling. […] Antagonists were applied i.v. by injection into the tail vein and p.o. using a gavage followed by blood and urine sampling (10 μL) after 6 min, 30 min, 1 h, 2 h, 4 h, 6 h, 8 h and 24 h. Before analysis, proteins in blood and urine samples were precipitated using methanol and centrifuged for 11 min at 13,000 rpm. The supernatant was transferred into a 96-well plate and analyzed by LC-MS.

[4] = tested on: E. coli strain UTI89; assay: Aggregometer assay (disaggregation of E. coli UTI89 from guinea pig erythrocytes); assay type: cell-based; details: relative to heptyl α-D-mannopyranoside (rIC50=1)
Procedure: In analogy to N. Firon, I. Ofek, N. Sharon, Biochem. Biophys. Res. Comm. 1982, 105, 1426-1432, the following assay is conducted: E. coli strain UTI89 is statically incubated in Luria-Bertani broth for 24 h, washed twice and adjusted to an optical density at 600 nm (OD600) of 4.0. The percentage of aggregation of UTI89 to guinea pig erythrocytes (GPE) is quantitatively measured using an APACT 4004 aggregometer (Endotell AG, Allschwil, Switzerland) at 740 nm, 37° C. under stirring at 1000 rpm. For calibration, first the protein poor plasma (PPP) is measured using PBS 1% and set as 100% aggregation, followed by the protein rich plasma (PRP) using GPE at an OD600 of 4.0, set as 0% aggregation. After calibration, the measurement is initiated using 250 μL GPE and 50 μL bacterial suspension. Following the aggregation phase of 600 s, 25 μL of the antagonists at different concentrations are added and disaggregation is monitored over 1400 s. The FimH-deleted mutant of E. coli UTI89 is used to proof FimH-specific GPE agglutination. For evaluation, the area under the disaggregation curve (AUC) is calculated and compared to the reference, heptyl α-D-mannopyranoside (see Table 2). The activities are reported as rel. IC50 (rIC50) with heptyl α-D-mannopyranoside as reference compound (rIC50=1).

| Compound | Average conc. to prevent clotting [1] [µM] | IC50 [2] [nM] | rIC50 [2] | AUC0-24 i.v. ([3]; plasma) [µg·h/mL] | AUC0-24 i.v. ([3]; urine) [µg·h/mL] | rIC50 (measured in the aggregometer assay) [4] |
| --- | --- | --- | --- | --- | --- | --- |
| OC[C@H]1O[C@H](Oc2ccc(-n3ccc4ccccc43)cc2Cl)[C@@H](O)[C@@H](O)[C@@H]1O [Compound 29a, 2-Chloro-4-(indol-1-yl)phenyl α-D-mannopyranoside] | 1.111 |  |  |  |  |  |
| O=[N+]([O-])c1ccc2c(ccn2-c2ccc(O[C@H]3O[C@H](CO)[C@@H](O)[C@H](O)[C@@H]3O)c(Cl)c2)c1 [Compound 29b, 2-Chloro-4-(5-nitroindol-1-yl)phenyl α-D-mannopyranoside] | 0.556 | 590 ± 45 | 0.15 |  |  |  |
| OC[C@H]1O[C@H](Oc2ccc(-n3ccc4ccccc43)cc2F)[C@@H](O)[C@@H](O)[C@@H]1O [Compound 32, 2-Fluoro-4-(indol-1-yl)phenyl α-D-mannopyranoside] | 5.556 |  |  |  |  |  |
| O=[N+]([O-])c1ccc2c(ccn2-c2ccc(O[C@H]3O[C@H](CO)[C@@H](O)[C@H](O)[C@@H]3O)c(F)c2)c1 [Compound 34, 2-Fluoro-4-(5-nitroindol-1-yl)phenyl α-D-mannopyranoside] | 0.833 |  |  |  |  |  |
| CCCCCCCO[C@H]1O[C@H](CO)[C@@H](O)[C@H](O)[C@@H]1O [HM, heptyl α-D-mannopyranoside, reference compound] | 42 | 3900 ± 1600 | 1 | 34.3 ± 33.3 | 2469.3 ± 636.4 | 1 |

From patent US20150175644A1, “MANNOSE DERIVATIVES AS ANTAGONISTS OF BACTERIAL ADHESION” (UNIVERSITY OF BASEL, priority 2009, published 2015)
